From ChEMBL document CHEMBL6153145, “Isocoumarins from Spegazzinia sp. MDCW-573 with Antibacterial and Proangiogenic Activities” (2025)
Values after ≈ are worked out from the molar mass of the structure shown. Active and inactive are the calls of the source. The calls are words filed in the database; no cut-off is given here.

Experiments:
HepG2 = test: Cytotoxicity against human HepG2 cells; assay type: functional, cell-based
A549 = test: Cytotoxicity against human A549 cells; assay type: functional, cell-based
HCT-116 = test: Cytotoxicity against human HCT-116 cells; assay type: functional, cell-based
HeLa = test: Cytotoxicity against human HeLa cells; assay type: functional, cell-based
MCF7 = test: Cytotoxicity against human MCF7 cells; assay type: functional, cell-based
Staphylococcus aureus = test: Antibacterial activity against Staphylococcus aureus by broth microdilution method; assay type: functional
Escherichia coli = test: Antibacterial activity against Escherichia coli by broth microdilution method; assay type: functional
Pseudomonas aeruginosa = test: Antibacterial activity against Pseudomonas aeruginosa by broth microdilution method; assay type: functional
Danio rerio [1] = organism: Danio rerio; test: Induction of pro-angiogenic activity in transgenic Tg (flk1:EGFP) zebrafish model assessed as growth of intersegmental vessel at 10 uM for 24 hrs by olympus fluorescence microscopy analysis; assay type: functional, organism-based
Danio rerio [2] = organism: Danio rerio; test: Induction of pro-angiogenic activity in transgenic Tg (flk1:EGFP) zebrafish model assessed as growth of intersegmental vessel at 20 uM for 24 hrs by olympus fluorescence microscopy analysis; assay type: functional, organism-based
Danio rerio [3] = organism: Danio rerio; test: Induction of pro-angiogenic activity in transgenic Tg (flk1:EGFP) zebrafish model assessed as growth of intersegmental vessel at 40 uM for 24 hrs by olympus fluorescence microscopy analysis; assay type: functional, organism-based

| MIC (Staphylococcus aureus) [µg/mL] | MIC (Escherichia coli) [µg/mL] | MIC (Pseudomonas aeruginosa) [µg/mL] | SMILES | Activity (HepG2) | Activity (A549) | Activity (HCT-116) | Activity (HeLa) | Activity (MCF7) | Activity (Danio rerio [1]) | Activity (Danio rerio [2]) | Activity (Danio rerio [3]) |
| --- | --- | --- | --- | --- | --- | --- | --- | --- | --- | --- | --- |
| 64 (≈ 233 µM) | 32 (≈ 117 µM) | 32 (≈ 117 µM) | COc1c(O)c(Cl)c2c(c1O)C(=O)O[C@H](C)[C@H]2O | inactive | inactive | inactive | inactive | inactive |  |  |  |
| 2 (≈ 4.48 µM) | 1 (≈ 2.24 µM) | 32 (≈ 71.7 µM) | COc1c(O)cc2c(c1O)C(=O)O[C@H](C)[C@H]2Oc1cc2c(c(O)c1OC)C(=O)O[C@H](C)C2 | inactive | inactive | inactive | inactive | inactive |  |  |  |
| 4 (≈ 18 µM) | 16 (≈ 72 µM) | 32 (≈ 144 µM) | COc1c(O)cc2cc(C)oc(=O)c2c1O | inactive | inactive | inactive | inactive | inactive |  |  |  |
|  |  |  | CCO[C@H]1c2cc(O)c(OC)c(O)c2C(=O)O[C@@H]1C | inactive | inactive | inactive | inactive | inactive |  |  |  |
| 64 (≈ 133 µM) | 32 (≈ 66.5 µM) | 32 (≈ 66.5 µM) | COc1c(O)cc2c(c1O)C(=O)O[C@H](C)[C@H]2Oc1c(Cl)c2c(c(O)c1OC)C(=O)O[C@H](C)C2 | inactive | inactive | inactive | inactive | inactive |  |  |  |
| 64 (≈ 129 µM) | 4 (≈ 8.05 µM) | 64 (≈ 129 µM) | COc1c(O)cc2c(c1O)C(=O)O[C@H](C)[C@H]2Oc1c(Cl)c2c(c(O)c1OC)C(=O)O[C@H](C)[C@@H]2O | inactive | inactive | inactive | inactive | inactive |  |  |  |
| 64 (≈ 304 µM) | 64 (≈ 304 µM) | 32 (≈ 152 µM) | C[C@@H]1Cc2cc(O)c(O)c(O)c2C(=O)O1 | inactive | inactive | inactive | inactive | inactive |  |  |  |
| 64 (≈ 233 µM) | 64 (≈ 233 µM) | 64 (≈ 233 µM) | COc1c(O)c(Cl)c2c(c1O)C(=O)O[C@H](C)[C@@H]2O | inactive | inactive | inactive | inactive | inactive |  |  |  |
| 64 (≈ 280 µM) | 32 (≈ 140 µM) | 64 (≈ 280 µM) | C[C@H]1OC(=O)c2c(O)cc(O)cc2[C@H]1Cl | inactive | inactive | inactive | inactive | inactive |  |  |  |
| 64 (≈ 129 µM) | 8 (≈ 16.1 µM) | 64 (≈ 129 µM) | COc1c(O)cc2c(c1O)C(=O)O[C@H](C)[C@@H]2Oc1c(Cl)c2c(c(O)c1OC)C(=O)O[C@H](C)[C@@H]2O | inactive | inactive | inactive | inactive | inactive |  |  |  |
| 64 (≈ 252 µM) | 16 (≈ 62.9 µM) | 64 (≈ 252 µM) | COc1c(O)cc2c(c1O)C(=O)O[C@H](C)[C@H]2OC | inactive | inactive | inactive | inactive | inactive |  |  |  |
| 32 (≈ 101 µM) | 32 (≈ 101 µM) | > 64 | COc1c(O)c(Cl)c2c(c1O)C(=O)O[C@H](C)[C@H]2OC(C)=O | inactive | inactive | inactive | inactive | inactive | Active | Active | Active |
| 64 (≈ 133 µM) | 64 (≈ 133 µM) | 32 (≈ 66.5 µM) | COc1c(O)cc2c(c1O)C(=O)O[C@H](C)[C@@H]2Oc1c(Cl)c2c(c(O)c1OC)C(=O)O[C@H](C)C2 | inactive | inactive | inactive | inactive | inactive |  |  |  |
| 64 (≈ 252 µM) | 16 (≈ 62.9 µM) | 64 (≈ 252 µM) | COc1c(O)cc2c(c1O)C(=O)O[C@H](C)[C@@H]2OC | inactive | inactive | inactive | inactive | inactive |  |  |  |
| 64 (≈ 266 µM) | 8 (≈ 33.3 µM) | 64 (≈ 266 µM) | COc1c(O)cc2c(c1O)C(=O)O[C@H](C)[C@@H]2O | inactive | inactive | inactive | inactive | inactive |  |  |  |
| 16 (≈ 34.6 µM) | 64 (≈ 138 µM) | 16 (≈ 34.6 µM) | COc1c(O)cc2c(c1O)C(=O)O[C@H](C)[C@H]2Oc1cc2c(c(O)c1OC)C(=O)O[C@H](C)[C@@H]2O | inactive | inactive | inactive | inactive | inactive |  |  |  |
| 64 (≈ 129 µM) | 32 (≈ 64.4 µM) | 32 (≈ 64.4 µM) | COc1c(O)cc2c(c1O)C(=O)O[C@H](C)[C@@H]2Oc1c(Cl)c2c(c(O)c1OC)C(=O)O[C@H](C)[C@H]2O | inactive | inactive | inactive | inactive | inactive | Active | Active | Active |
| 32 (≈ 124 µM) | 2 (≈ 7.73 µM) | 32 (≈ 124 µM) | COc1c(O)c(Cl)c2c(c1O)C(=O)O[C@H](C)C2 | inactive | inactive | inactive | inactive | inactive |  |  |  |
| 64 (≈ 129 µM) | 32 (≈ 64.4 µM) | 64 (≈ 129 µM) | COc1c(O)cc2c(c1O)C(=O)O[C@H](C)[C@H]2Oc1c(Cl)c2c(c(O)c1OC)C(=O)O[C@H](C)[C@H]2O | inactive | inactive | inactive | inactive | inactive | Active | Active | Active |
| 64 (≈ 143 µM) | 1 (≈ 2.24 µM) | 32 (≈ 71.7 µM) | COc1c(O)cc2c(c1O)C(=O)O[C@H](C)[C@@H]2Oc1cc2c(c(O)c1OC)C(=O)O[C@H](C)C2 | inactive | inactive | inactive | inactive | inactive |  |  |  |

| SMILES | MIC (Staphylococcus aureus) [µg/mL] | MIC (Escherichia coli) [µg/mL] | MIC (Pseudomonas aeruginosa) [µg/mL] | Activity (HepG2) | Activity (A549) | Activity (HCT-116) | Activity (HeLa) | Activity (MCF7) | Activity (Danio rerio [1]) | Activity (Danio rerio [2]) | Activity (Danio rerio [3]) |
| --- | --- | --- | --- | --- | --- | --- | --- | --- | --- | --- | --- |
| O=C(O)c1cn(C2CC2)c2cc(N3CCNCC3)c(F)cc2c1=O [CIPROFLOXACIN] | 0.5 (≈ 1.51 µM) |  | 4 (≈ 12.1 µM) |  |  |  |  |  |  |  |  |
